One experiment concerns T1, ATAD5-RFC.
T1 construct: N-terminally truncated ATAD5 (812-end of 1844), N-terminal 3xFLAG and C-terminal 6xHis, heteropentamer with RFC2-RFC5, insect cells (Sf9/Hi5)
Briefly: malachite green phosphate ATPase assay. It is filed as biochemical, Homo sapiens. To be noted: 1 mM ATP, 0.25 μM ATAD5-RFC, 2 mM MgCl2, pH 7.6, room temperature; alone or with PCNA and/or DNA.

Experiment [1] relates to T2, human ATAD5-RFC–PCNA complex.
T2 construct: N-terminally truncated ATAD5 (812-end of 1844), N-terminal 3xFLAG and C-terminal 6xHis, with RFC2-RFC5, insect cells (Sf9/Hi5); PCNA homotrimer from E. coli, His tag cut by thrombin; with Proliferating cell nuclear antigen
The experiment can be described thus: cryo-EM structure. The format is binding. To be noted: 0.5 mM ATPγS, Mg2+; bound at ATAD5, RFC2, RFC5 and (states 1 and 2) RFC4.

The structures appear in SMILES notation.

T1 sequence (Q96QE3 812-1844): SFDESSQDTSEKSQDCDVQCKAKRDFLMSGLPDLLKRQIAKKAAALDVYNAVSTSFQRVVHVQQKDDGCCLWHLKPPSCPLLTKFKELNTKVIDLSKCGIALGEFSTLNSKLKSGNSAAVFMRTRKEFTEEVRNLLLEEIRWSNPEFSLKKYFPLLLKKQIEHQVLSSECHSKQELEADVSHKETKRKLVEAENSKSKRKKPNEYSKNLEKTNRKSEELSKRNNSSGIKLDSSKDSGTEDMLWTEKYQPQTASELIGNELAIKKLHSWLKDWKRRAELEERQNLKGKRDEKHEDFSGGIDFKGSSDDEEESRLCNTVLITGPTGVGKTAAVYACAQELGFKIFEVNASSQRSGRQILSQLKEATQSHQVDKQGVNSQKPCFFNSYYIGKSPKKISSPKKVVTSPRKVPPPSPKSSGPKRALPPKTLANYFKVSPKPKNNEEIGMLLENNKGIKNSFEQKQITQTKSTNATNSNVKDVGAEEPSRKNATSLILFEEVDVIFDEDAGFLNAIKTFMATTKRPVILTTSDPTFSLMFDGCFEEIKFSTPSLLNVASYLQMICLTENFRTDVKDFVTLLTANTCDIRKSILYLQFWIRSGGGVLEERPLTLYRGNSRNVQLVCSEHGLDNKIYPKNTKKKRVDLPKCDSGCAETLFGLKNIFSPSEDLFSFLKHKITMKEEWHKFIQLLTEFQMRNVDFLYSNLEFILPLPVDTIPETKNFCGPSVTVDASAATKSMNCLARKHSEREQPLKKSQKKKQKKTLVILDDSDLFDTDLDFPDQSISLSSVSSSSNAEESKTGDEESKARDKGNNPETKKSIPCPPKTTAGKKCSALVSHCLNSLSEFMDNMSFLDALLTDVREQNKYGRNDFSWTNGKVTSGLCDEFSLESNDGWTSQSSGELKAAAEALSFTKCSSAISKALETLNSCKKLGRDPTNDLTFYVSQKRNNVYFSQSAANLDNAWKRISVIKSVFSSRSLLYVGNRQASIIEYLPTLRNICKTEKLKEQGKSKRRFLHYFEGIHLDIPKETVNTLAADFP
T1 sequence (P35250 whole entry, further chain, the tested form may be a part): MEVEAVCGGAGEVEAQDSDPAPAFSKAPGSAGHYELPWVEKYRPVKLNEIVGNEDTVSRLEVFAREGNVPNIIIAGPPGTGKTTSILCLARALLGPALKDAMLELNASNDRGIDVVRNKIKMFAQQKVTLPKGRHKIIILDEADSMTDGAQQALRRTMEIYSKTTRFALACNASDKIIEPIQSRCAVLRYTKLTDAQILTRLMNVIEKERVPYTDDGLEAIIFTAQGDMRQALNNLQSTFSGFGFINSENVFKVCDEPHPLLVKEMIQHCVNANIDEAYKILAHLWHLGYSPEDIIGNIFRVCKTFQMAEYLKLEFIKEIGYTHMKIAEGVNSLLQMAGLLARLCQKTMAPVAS
T1 sequence (P40938 whole entry, further chain, the tested form may be a part): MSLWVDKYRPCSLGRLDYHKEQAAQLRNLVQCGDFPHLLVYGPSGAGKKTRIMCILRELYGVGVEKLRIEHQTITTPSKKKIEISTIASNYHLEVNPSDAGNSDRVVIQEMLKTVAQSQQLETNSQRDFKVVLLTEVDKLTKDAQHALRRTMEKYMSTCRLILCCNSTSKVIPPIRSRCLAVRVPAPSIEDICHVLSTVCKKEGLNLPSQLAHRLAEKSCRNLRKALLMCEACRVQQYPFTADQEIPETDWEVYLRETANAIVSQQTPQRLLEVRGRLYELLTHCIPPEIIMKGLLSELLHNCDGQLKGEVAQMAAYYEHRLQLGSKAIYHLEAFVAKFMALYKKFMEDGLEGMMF
T1 sequence (P35249 whole entry, further chain, the tested form may be a part): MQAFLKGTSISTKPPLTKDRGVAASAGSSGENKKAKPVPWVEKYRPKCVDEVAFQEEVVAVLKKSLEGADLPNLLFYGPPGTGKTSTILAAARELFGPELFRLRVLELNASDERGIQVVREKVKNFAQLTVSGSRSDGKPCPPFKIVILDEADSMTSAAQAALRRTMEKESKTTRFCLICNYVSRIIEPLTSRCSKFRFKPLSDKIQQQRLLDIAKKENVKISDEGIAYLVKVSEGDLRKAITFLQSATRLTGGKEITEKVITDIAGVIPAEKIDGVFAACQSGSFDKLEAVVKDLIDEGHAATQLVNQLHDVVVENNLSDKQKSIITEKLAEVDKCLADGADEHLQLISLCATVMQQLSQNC
T1 sequence (P40937 whole entry, further chain, the tested form may be a part): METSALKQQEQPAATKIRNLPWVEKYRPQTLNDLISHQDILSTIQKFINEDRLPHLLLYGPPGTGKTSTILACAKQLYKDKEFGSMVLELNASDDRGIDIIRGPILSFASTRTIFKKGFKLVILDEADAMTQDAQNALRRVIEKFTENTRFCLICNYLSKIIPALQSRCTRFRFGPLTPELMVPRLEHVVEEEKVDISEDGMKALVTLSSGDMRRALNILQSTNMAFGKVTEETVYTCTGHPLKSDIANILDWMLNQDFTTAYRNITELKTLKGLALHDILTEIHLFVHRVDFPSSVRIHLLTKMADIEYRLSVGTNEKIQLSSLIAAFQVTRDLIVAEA
T2 sequence (Q96QE3 812-1844): as the sequence (Q96QE3 812-1844) above
T2 sequence (P35250 whole entry, further chain, the tested form may be a part): as the sequence (P35250 whole entry, further chain, the tested form may be a part) above
T2 sequence (P40938 whole entry, further chain, the tested form may be a part): as the sequence (P40938 whole entry, further chain, the tested form may be a part) above
T2 sequence (P35249 whole entry, further chain, the tested form may be a part): as the sequence (P35249 whole entry, further chain, the tested form may be a part) above
T2 sequence (P40937 whole entry, further chain, the tested form may be a part): as the sequence (P40937 whole entry, further chain, the tested form may be a part) above
T2 sequence (P12004 whole entry partner, the tested form may be a part): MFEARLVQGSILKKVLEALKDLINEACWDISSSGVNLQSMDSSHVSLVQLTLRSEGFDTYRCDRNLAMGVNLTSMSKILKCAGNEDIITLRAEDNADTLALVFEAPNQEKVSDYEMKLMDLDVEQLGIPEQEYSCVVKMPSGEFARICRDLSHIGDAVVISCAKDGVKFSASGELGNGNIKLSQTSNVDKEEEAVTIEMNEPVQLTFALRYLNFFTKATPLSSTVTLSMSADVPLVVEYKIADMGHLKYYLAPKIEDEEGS

With `Nc1ncnc2c1ncn2[C@@H]1O[C@H](COP(=O)(O)OP(=O)(O)OP(=O)(O)O)[C@@H](O)[C@H]1O` [ATP], the ATP hydrolyzed/min result with ATAD5-RFC is listed as “ATP hydrolyzed/min by ATAD5-RFC alone or with PCNA and/or DNA”.

In the case of `Nc1ncnc2c1ncn2[C@@H]1O[C@H](COP(=O)(O)OP(=O)(O)OP(O)(O)=S)[C@@H](O)[C@H]1O` [ATPγS], in experiment [1], the cryo-EM structure result was “four subunits (ATAD5, RFC2, RFC5 and RFC4, that is, subunits A–D) each bound an ATPγS”.

These data come from PMC11563871, “The human ATAD5 has evolved unique structural elements to function exclusively as a PCNA unloader” (Nature Structural & Molecular Biology, 2024).
